These results are taken from ChEMBL document CHEMBL1130318, “Inhibition of stromelysin-1 (MMP-3) by P1'-biphenylylethyl carboxyalkyl dipeptides” (J Med Chem, 1997).

One assay addresses Stromelysin-1 (Homo sapiens, UniProt P08254).
Assay [1] addresses 72 kDa type IV collagenase (Homo sapiens, UniProt P08253).
Description: Inhibition of gelatinase A (Matrix metalloprotease-2)
Another assay has as its system Mus musculus. Kind of assay: Effective dose for inhibition of MMP-3 mediated degradation of radiolabeled transferrin in the mouse pleural cavity (PLCAV) after 60 mpk oral dose of inhibitor. Type of assay: functional.

Chain of Stromelysin-1 (P08254 whole entry): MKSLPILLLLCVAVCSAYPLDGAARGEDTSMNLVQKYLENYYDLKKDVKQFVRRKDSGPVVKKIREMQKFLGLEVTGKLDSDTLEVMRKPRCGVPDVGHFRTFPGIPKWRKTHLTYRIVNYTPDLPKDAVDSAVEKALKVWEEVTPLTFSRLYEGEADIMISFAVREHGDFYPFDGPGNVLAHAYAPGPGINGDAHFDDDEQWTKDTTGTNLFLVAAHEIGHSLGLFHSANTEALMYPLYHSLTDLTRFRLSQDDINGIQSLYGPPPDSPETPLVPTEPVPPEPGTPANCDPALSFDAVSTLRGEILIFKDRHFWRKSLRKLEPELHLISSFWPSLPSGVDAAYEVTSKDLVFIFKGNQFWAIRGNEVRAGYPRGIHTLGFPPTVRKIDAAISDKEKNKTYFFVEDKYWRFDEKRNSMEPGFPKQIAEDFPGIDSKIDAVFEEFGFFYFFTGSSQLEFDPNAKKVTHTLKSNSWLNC
Chain of 72 kDa type IV collagenase (P08253 whole entry): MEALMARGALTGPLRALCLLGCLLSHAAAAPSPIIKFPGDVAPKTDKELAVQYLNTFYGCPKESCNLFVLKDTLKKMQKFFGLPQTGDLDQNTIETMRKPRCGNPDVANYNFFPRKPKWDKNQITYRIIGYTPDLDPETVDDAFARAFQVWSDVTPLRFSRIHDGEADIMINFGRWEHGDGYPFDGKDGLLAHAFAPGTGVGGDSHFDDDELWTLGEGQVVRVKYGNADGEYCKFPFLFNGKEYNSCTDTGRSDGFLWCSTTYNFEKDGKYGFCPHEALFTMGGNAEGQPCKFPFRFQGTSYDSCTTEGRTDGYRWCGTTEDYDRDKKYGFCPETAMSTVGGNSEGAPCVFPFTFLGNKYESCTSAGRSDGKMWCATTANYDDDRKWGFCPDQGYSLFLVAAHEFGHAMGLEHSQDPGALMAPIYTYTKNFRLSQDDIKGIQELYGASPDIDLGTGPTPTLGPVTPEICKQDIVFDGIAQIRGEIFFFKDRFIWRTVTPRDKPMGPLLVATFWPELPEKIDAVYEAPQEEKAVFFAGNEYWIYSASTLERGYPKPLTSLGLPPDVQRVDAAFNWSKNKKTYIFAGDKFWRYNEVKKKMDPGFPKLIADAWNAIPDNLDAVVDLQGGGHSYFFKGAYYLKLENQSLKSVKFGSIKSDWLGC
Description for Stromelysin-1: Inhibition of human stromelysin-1 (Matrix metalloprotease-3)

For `CCCC[C@@H](C[C@@H](CCc1ccc(-c2cc3ccccc3[nH]2)cc1)C(=O)N[C@H](C(=O)NC)C(C)(C)C)C(=O)O`, the Ki (usually the equilibrium dissociation constant of an inhibitor or competing ligand from its target) on Stromelysin-1 was found to be 0.012 µM; in assay [1], 0.049 µM. Regarding `CCCC[C@@H](C[C@@H](CCc1ccc(-c2ccc(C(=O)N(C)C)cc2)cc1)C(=O)N[C@H](C(=O)NC)C(C)(C)C)C(=O)O`, the figures for the Ki (on Stromelysin-1; in assay [1]) were 0.04 µM and 0.05 µM, respectively.

As for `CCCC[C@@H](C[C@@H](CCc1ccc(-c2ccc(F)c(Cl)c2)cc1)C(=O)N[C@H](C(=O)NC)C(C)(C)C)C(=O)O`, the Ki stood at 0.019 µM on Stromelysin-1 and 0.08 µM in assay [1].

Consider `CCCC[C@@H](C[C@@H](CCc1ccc(-c2ccc(OC)cc2)cc1)C(=O)N[C@H](C(=O)NC)C(C)(C)C)C(=O)O`, for which the values for the Ki (at Stromelysin-1; in assay [1]) were 0.013 µM and 0.021 µM, respectively.

In the case of `CCCC[C@@H](C[C@@H](CCc1ccc(CCC)cc1)C(=O)N[C@H](C(=O)NC)C(C)(C)C)C(=O)O`, the Ki on Stromelysin-1 was found to be 0.14 µM; in assay [1], 0.047 µM. For `CCCC[C@@H](C[C@@H](CCc1ccc(CCC)cc1)C(=O)N[C@H](C(=O)Nc1ccncc1)C(C)(C)C)C(=O)O`, the Ki on Stromelysin-1 was 0.011 µM; in assay [1] it was 0.022 µM. Taken in the same sequence, the figures for `CCCC[C@@H](C[C@@H](CCc1ccc(-c2cccc(N)c2)cc1)C(=O)N[C@H](C(=O)Nc1ccccc1)C(C)(C)C)C(=O)O` were 0.027 µM and 0.28 µM. As to `CCCC[C@@H](C[C@@H](CCc1ccc(Cc2ccccc2)cc1)C(=O)N[C@H](C(=O)Nc1ccccc1)C(C)(C)C)C(=O)O`, the Ki at Stromelysin-1 came out at 1.4 µM; in assay [1], 0.016 µM.

For `CCCC[C@@H](C[C@@H](CCc1ccc(-c2ccc(Cl)cc2)cc1)C(=O)N[C@H](C(=O)NC)C(C)(C)C)C(=O)O`, the Ki at Stromelysin-1 was 0.013 µM; in assay [1] it was 0.025 µM. For the molecule `CC(C)C[C@H](NC(=O)[C@H](CCc1ccc(-c2ccccc2)cc1)C[C@H](C)C(=O)O)C(=O)Nc1ccccc1`, affinity at Stromelysin-1 was put at a Ki of 0.082 µM. This lies in the double-digit nanomolar range. For `CCCC[C@@H](C[C@@H](CCc1ccc(-c2ccc(S(C)(=O)=O)cc2)cc1)C(=O)N[C@H](C(=O)NC)C(C)(C)C)C(=O)O`, the Ki was 0.021 µM on Stromelysin-1 and 0.019 µM in assay [1]. In the case of `CCCC[C@@H](C[C@@H](CCc1ccc(-c2ccc(C(F)(F)F)cc2)cc1)C(=O)N[C@H](C(=O)NC)C(C)(C)C)C(=O)O`, the Ki worked out at 0.037 µM on Stromelysin-1 and 0.039 µM in assay [1]. Taken in the same sequence, the figures for `CCCC[C@@H](C[C@@H](CCc1ccc(-c2ccc(-c3nnn[nH]3)cc2)cc1)C(=O)N[C@H](C(=O)NC)C(C)(C)C)C(=O)O` were 0.35 µM and 1.8 µM.

In the case of `CCCC[C@@H](C[C@@H](CCc1ccc(-c2ccc(F)cc2)cc1)C(=O)N[C@H](C(=O)Nc1ccccc1)C(C)(C)C)C(=O)O`, the Ki was 0.004 µM on Stromelysin-1 and 0.15 µM in assay [1]. With `CCCC[C@@H](C[C@@H](CCc1ccc(-c2cc(Cl)cc(Cl)c2)cc1)C(=O)N[C@H](C(=O)NC)C(C)(C)C)C(=O)O`, the results for the Ki (on Stromelysin-1; in assay [1]) were 1.5 µM and 1.6 µM, respectively. Taken in the same sequence, the figures for `CCCC[C@@H](C[C@@H](CCc1cccc(-c2ccccc2)c1)C(=O)N[C@H](C(=O)NC)C(C)(C)C)C(=O)O` were 1.5 µM and 2.4 µM. With `CCCC[C@@H](C[C@@H](CCc1ccc(-c2ccccc2F)cc1)C(=O)N[C@H](C(=O)NC)C(C)(C)C)C(=O)O`, the Ki at Stromelysin-1 came to 0.011 µM; in assay [1], 0.061 µM. Regarding `CCCC[C@@H](C[C@@H](CCc1cccc(-c2ccsc2)c1)C(=O)N[C@H](C(=O)NC)C(C)(C)C)C(=O)O`, the Ki was 0.015 µM on Stromelysin-1 and 0.021 µM in assay [1]. Consider `CC(C)C[C@H](NC(=O)[C@H](CCc1ccccc1)N[C@H](C)C(=O)O)C(=O)Nc1ccccc1` [L-696418], for which the ED50 (in general, the dose at which the effect has come halfway, by size or by number of responders) in the assay on Mus musculus was over 100 mg/kg. In the case of `CCCc1ccc(CC[C@H](N[C@H](C)C(=O)O)C(=O)N[C@@H](CC(C)C)C(=O)Nc2ccccc2)cc1`, in the assay with Mus musculus, the ED50 worked out at 65 mg/kg. With `CCCC[C@@H](C[C@@H](CCc1ccc(-c2ccc(C=O)cc2)cc1)C(=O)N[C@H](C(=O)NC)C(C)(C)C)C(=O)O`, the Ki at Stromelysin-1 worked out at 0.015 µM; in assay [1] it was 0.016 µM. With `CCCC[C@@H](C[C@@H](CCc1ccc(CCc2ccccc2)cc1)C(=O)N[C@H](C(=O)NC)C(C)(C)C)C(=O)O`, the figures for the Ki (on Stromelysin-1; in assay [1]) were 0.049 µM and 0.38 µM, respectively. Taken in the same sequence, the figures for `CCCC[C@@H](C[C@@H](CCc1ccc(-c2ccc(C(=O)OC)cc2)cc1)C(=O)N[C@H](C(=O)NC)C(C)(C)C)C(=O)O` were 0.031 µM and 0.032 µM. Taken in the same sequence, the figures for `CCCC[C@@H](C[C@@H](CCc1ccc(-c2ccc(F)cc2)cc1)C(=O)N[C@H](C(=O)Nc1ccncc1)C(C)(C)C)C(=O)O` were 0.002 µM and 0.025 µM.

`CC(C)C[C@H](NC(=O)[C@H](CCc1ccc(-c2ccc(F)cc2)cc1)C[C@H](C)C(=O)O)C(=O)Nc1ccccc1` showed a Ki at Stromelysin-1 of 0.038 µM. As to `CCCC[C@@H](C[C@@H](CCc1ccc(-c2c(C)cccc2C)cc1)C(=O)N[C@H](C(=O)NC)C(C)(C)C)C(=O)O`, the Ki at Stromelysin-1 came to 1.2 µM; in assay [1] it was 1.3 µM. In the assay with Mus musculus, `CCCc1ccc(CC[C@H](C[C@H](C)C(=O)O)C(=O)N[C@@H](CC(C)C)C(=O)Nc2ccccc2)cc1` yielded an ED50 of 32 mg/kg. `CCCC[C@@H](C[C@@H](CCc1ccc(-c2ccccc2S(=O)(=O)NC(C)(C)C)cc1)C(=O)N[C@H](C(=O)NC)C(C)(C)C)C(=O)O`: the Ki on Stromelysin-1 turned out to be 0.01 µM; in assay [1], 0.017 µM. As to `CCCC[C@@H](C[C@@H](CCc1ccc(-c2ccccc2S(N)(=O)=O)cc1)C(=O)N[C@H](C(=O)NC)C(C)(C)C)C(=O)O`, affinity at Stromelysin-1 was put at a Ki of 9.4 µM. As for `CCCC[C@@H](C[C@@H](CCc1ccc(C2CCCO2)cc1)C(=O)N[C@H](C(=O)NC)C(C)(C)C)C(=O)O` (some centres undefined), the Ki on Stromelysin-1 came to 1.4 µM; in assay [1], 0.81 µM.

Regarding `CCCC[C@@H](C[C@@H](CCc1ccc(-c2ccc(Br)cc2)cc1)C(=O)N[C@H](C(=O)NC)C(C)(C)C)C(=O)O`, the Ki on Stromelysin-1 worked out at 0.011 µM; in assay [1], 0.017 µM. On to `CCCC[C@@H](C[C@@H](CCc1ccc(-c2ccc(C(=O)NC)cc2)cc1)C(=O)N[C@H](C(=O)NC)C(C)(C)C)C(=O)O`, for which the figures for the Ki (on Stromelysin-1; in assay [1]) were 0.049 µM and 0.034 µM, respectively. Taken in the same sequence, the figures for `CCCC[C@@H](C[C@@H](CCc1ccc(/C=C/c2ccccc2)cc1)C(=O)N[C@H](C(=O)NC)C(C)(C)C)C(=O)O` were 0.065 µM and 0.76 µM. Take `CCCC[C@@H](C[C@@H](CCc1ccc(OCc2ccccc2)cc1)C(=O)N[C@H](C(=O)NC)C(C)(C)C)C(=O)O`: the figures for the Ki (at Stromelysin-1; in assay [1]) were 0.074 µM and 0.21 µM, respectively. `CCCC[C@@H](C[C@@H](CCc1ccc(-c2cccc3ccccc23)cc1)C(=O)N[C@H](C(=O)NC)C(C)(C)C)C(=O)O`: the results for the Ki (on Stromelysin-1; in assay [1]) were 2 µM and 6.9 µM, respectively. Take `CCCC[C@@H](C[C@@H](CCc1ccc(-c2ccc([S+](C)[O-])cc2)cc1)C(=O)N[C@H](C(=O)NC)C(C)(C)C)C(=O)O` (some centres undefined): the Ki on Stromelysin-1 is 0.052 µM; in assay [1], 0.03 µM.

With `CCCC[C@@H](C[C@@H](CCc1ccc(-c2ccc(C(N)=O)cc2)cc1)C(=O)N[C@H](C(=O)NC)C(C)(C)C)C(=O)O`, the Ki was determined as 0.024 µM on Stromelysin-1 and 0.038 µM in assay [1].

Consider `CCCC[C@@H](C[C@@H](CCc1ccc(-c2cccc(C(F)(F)F)c2)cc1)C(=O)N[C@H](C(=O)NC)C(C)(C)C)C(=O)O`, for which the values for the Ki (at Stromelysin-1; in assay [1]) were 1.1 µM and 3.6 µM, respectively. Consider `CCCC[C@@H](C[C@@H](CCc1ccc(-c2ccc(-c3ccccc3)cc2)cc1)C(=O)N[C@H](C(=O)NC)C(C)(C)C)C(=O)O`, for which the Ki on Stromelysin-1 worked out at 0.039 µM; in assay [1], 0.084 µM. Taken in the same sequence, the figures for `CCCC[C@@H](C[C@@H](CCc1ccccc1)C(=O)N[C@H](C(=O)NC)C(C)(C)C)C(=O)O` were 3.8 µM and 1.5 µM. Taken in the same sequence, the figures for `CCCC[C@@H](C[C@@H](CCc1ccc(C2CCCCCC2)cc1)C(=O)N[C@H](C(=O)NC)C(C)(C)C)C(=O)O` were 0.095 µM and 1.9 µM. Consider `CCCC[C@@H](C[C@@H](CCc1ccc(-c2cccc(F)c2)cc1)C(=O)N[C@H](C(=O)NC)C(C)(C)C)C(=O)O`, for which the Ki came to 0.021 µM at Stromelysin-1 and 0.048 µM in assay [1]. Taken in the same sequence, the figures for `CCCC[C@@H](C[C@@H](CCc1ccc(-c2ccc(C#N)cc2)cc1)C(=O)N[C@H](C(=O)NC)C(C)(C)C)C(=O)O` were 0.009 µM and 0.014 µM.

For the molecule `CCCC[C@@H](C[C@@H](CCc1ccc(-c2ccc(C(=O)O)cc2)cc1)C(=O)N[C@H](C(=O)NC)C(C)(C)C)C(=O)O`, the Ki is 0.69 µM on Stromelysin-1 and 0.58 µM in assay [1]. Taken in the same sequence, the figures for `CCCC[C@@H](C[C@@H](CCc1ccc(-c2ccc(Cl)cc2Cl)cc1)C(=O)N[C@H](C(=O)NC)C(C)(C)C)C(=O)O` were 0.012 µM and 0.1 µM. Taken in the same sequence, the figures for `CCCC[C@@H](C[C@@H](CCc1ccc(-c2ccc(SC)cc2)cc1)C(=O)N[C@H](C(=O)NC)C(C)(C)C)C(=O)O` were 0.005 µM and 0.013 µM.

For the molecule `CCCC[C@@H](C[C@@H](CCc1ccc(-c2ccc(-c3ncc[nH]3)cc2)cc1)C(=O)N[C@H](C(=O)NC)C(C)(C)C)C(=O)O`, the Ki on Stromelysin-1 came out at 0.025 µM; in assay [1], 0.094 µM. `CCCC[C@@H](C[C@@H](CCc1ccc(-c2ccc3ccccc3c2)cc1)C(=O)N[C@H](C(=O)NC)C(C)(C)C)C(=O)O` gave a Ki at Stromelysin-1 of 0.12 µM. In other words, the sub-micromolar range.
